Experiments:
NSG-SGM3 BLT mice [1] = conditions: mouse, in vivo
Experimental: SLG20 alginate 500 μm diameter spheres (“alginate spheres,” 0.5 ml total implant volume) were implanted into the intraperitoneal (IP) space of pro-fibrotic C57BL/6 mice and various humanized mouse models, retained for 28 days, and analyzed for degree of fibrosis upon alginate sphere retrieval. […] Experiments repeated at least 3 times.
Implanted mice were anesthetized with 3% isoflurane in oxygen and their abdomens were shaved and sterilized using betadine and isopropanol. Preoperatively, all mice received 0.05 mg/kg buprenorphine and 0.2 mL of 0.9% saline SC for pre-surgery analgesia and hydration. A midline incision (0.5 mm) was made and the peritoneal lining was exposed using blunt dissection. The peritoneal wall was then grasped with forceps and a 0.5-1 mm incision was made along the linea alba. 500 μL of spheres were then loaded into a sterile pipette and implanted into the intraperitoneal (IP) space. The incision was then closed using 5-0 PDS II absorbable sutures, and the skin was closed using wound clips and VetBond tissue glue. […] For macrophage depletion, clodrosomes (200 μL/mouse) (Encapsula NanoSciences, Nashville, TN) were injected IP starting at −3 days (prior to implant day 0), and for every 7 days thereafter (on days −3, 4, and 11). […]

NSG-SGM3 BLT mice [2] = conditions: mouse, in vivo, sc
Experimental: All wild type male immune-competent C57BL/6 mice or immunodeficient strains used for producing humanized models (described below) were ordered pathogen-free from The Jackson Laboratory (Bar Harbor, ME). Implanted mice were anesthetized with 3% isoflurane in oxygen and their abdomens were shaved and sterilized using betadine and isopropanol. Preoperatively, all mice received 0.05 mg/kg buprenorphine and 0.2 mL of 0.9% saline SC for pre-surgery analgesia and hydration.
For phase contrast imaging retrieved materials were gently washed using Krebs buffer and transferred into 35 mm petri dishes for phase contrast microscopy using an EVOS XL microscope (Advanced Microscopy Group). For bright-field imaging of retrieved materials, samples were gently washed using Krebs buffer and transferred into 35 mm petri dishes for bright-field imaging using a Leica Stereoscopic microscope.
Retrieved material-containing tissue (intraperitoneal and/or subcutaneous) was fixed overnight using 4% paraformaldehyde at 4° C. After fixation, alginate sphere or retrieved tissue samples were washed using 70% alcohol. The materials were then paraffin embedded, sectioned at 5 μm thickness and stained according to standard histological (H&E or Masson's Trichrome) methods.

| Substance | FBR / fibrosis (NSG-SGM3 BLT mice [1]) | fibrotic encapsulation upon retrieval (NSG-SGM3 BLT mice [2]) |
| --- | --- | --- |
| polystyrene [Polystyrene spheres] | fibrosis of synthetic biomaterial polymer implants was observed | prominent fibrotic encapsulation |
| polydimethylsiloxane [PDMS 5 mm molded discs] | fibrosis of synthetic biomaterial polymer implants was observed |  |

Reference: patent US20250120372A1, “HUMANIZED MOUSE MODEL OF FIBROSIS” (The Jackson Laboratory, priority 2021, published 2025)
